Test: Pain relief and mobility in patients with musculoskeletal trauma, flavonoid/flavonol versus NSAID
Assay type: in vivo, human
Method: A preparation containing 2000 mg of quercitin and 20 mg OPC flavonols was given to one group of patients every 6 hours relief of pain. A second group of patients were given 650 mg of […]) every 4 hours.

[1] = Acute knee trauma patellar dislocation

In the case of Cc1ccc(-c2cc(C(F)(F)F)nn2-c2ccc(S(N)(=O)=O)cc2)cc1 [NSAID], the mobility [1] is reported as “mobility = 10”, the pain dec [1] is reported as “pain dec = 5” and the mobility (Basketball "groin muscle pull") is reported as “mobility = 30”. The pain dec (Basketball "groin muscle pull") was “pain dec = 15”, the mobility (Blunt injury to R. shoulder) was “mobility = 25” and the pain dec (Blunt injury to R. shoulder) was “pain dec = 20”.

Source: US6620798B1, “Synergistic agents for enhancing tissue repair” (priority 2000, dated 2003)
